# From patent US7238813B2, “Chemical compounds” (Smithkline Beecham Corporation, priority 2000, dated 2007)
# Target: T1, GST-TIE2 (intracellular domains of human TIE2) (Homo sapiens, UniProt Q02763)
# T1 construct: made in house
# Experiment: TIE-2 enzyme assay (TIE2-E), LANCE method
# Assay type: biochemical
# Conditions: 80 uM ATP
# Description: TIE-2Enzyme Assay (TIE2-E)
# The TIE-2 enzyme assay used the LANCE method (Wallac) and GST-TIE2, baculovirus expressed recombinant constructs of the intracellular domains of human TIE2 (amino acids 762–1104, GenBank Accession # L06139) tagged by GST). […] This peptide phosphorylation was detected using the following procedure: for enzyme preactivation, GST-TIE2 was incubated for 30 mins at room temperature with 2 mM ATP, 5 mM MgCl2 and 12.5 mM DTT in 22.5 mM HEPES buffer (pH7.4). Preactivated GST-TIE2 was incubated for 30 mins at room temperature in 96 well plates with 1 μM D1-15 peptide, 80 uM ATP, 10 mM MgCl2, 0.1 mg/ml BSA and the test compound (diluted from a 10 mM stock in DMSO, final DMSO concentration was 2.4%) in 1 mM HEPES (pH7.4). The reaction was stopped by the addition of EDTA (final concentration 45 mM). Streptavidin linked-APC (allophycocyanin, Molecular Probe) and Europium-labeled anti-phosphorylated tyrosine antibody (Wallac) were then added at the final concentration of 17 μg/well and 2.1 μg/well, respectively. The APC signal was measured using an ARVO multilabel counter. (Wallac Berthold Japan). The percent inhibition of activity was calculated relative to blank control wells. The concentration of test compound that inhibits 50% of activity (IC50) was interpolated using nonlinear regression (Levernberg-Marquardt) and the equation, y=Vmax (1−x/(K+x))+Y2, where “K” was equal to the IC50. The IC50 values were converted to pIC50 values, i.e., −log IC50 in Molar concentration.
# T1 sequence (Q02763 762-1104): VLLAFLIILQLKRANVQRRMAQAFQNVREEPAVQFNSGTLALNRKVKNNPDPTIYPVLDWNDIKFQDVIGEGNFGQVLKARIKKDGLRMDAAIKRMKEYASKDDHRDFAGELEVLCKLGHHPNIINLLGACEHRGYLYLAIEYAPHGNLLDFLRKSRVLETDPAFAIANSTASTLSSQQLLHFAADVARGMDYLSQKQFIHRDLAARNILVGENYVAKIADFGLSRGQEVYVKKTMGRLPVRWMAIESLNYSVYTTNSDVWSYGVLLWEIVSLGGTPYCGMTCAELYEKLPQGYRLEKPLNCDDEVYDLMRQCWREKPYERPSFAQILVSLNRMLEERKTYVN
Structure (SMILES),IC50,TIE2-E
"Nc1nc2ccc(Oc3ccc(NC(=O)Nc4cc(C(F)(F)F)ccc4F)nc3)cc2n1Cc1ccccc1 [Example 113, 6-(6-((2-Fluoro-5-(trifluoromethyl)phenyl)aminocarbonylamino)-3-pyridyloxy)-1-benzyl-1H-benzimidazol-2-ylamine]",< 100 nM,
"COC(=O)Nc1nc2cc(Oc3ccc(NC(=O)Nc4ccc(OC)cc4)cc3)ccc2[nH]1 [Example 62, Methyl N-(5-(4-((4-methoxyphenyl)aminocarbonylamino)phenoxy)-1H-benzimidazol-2-yl)carbamate]",1000 to 10000 nM,
"COC(=O)Nc1nc2cc(Oc3ccc(NC(=O)Nc4ccc(F)cc4)cc3)ccc2[nH]1 [Example 63, Methyl N-(5-(4-((4-fluorophenyl)aminocarbonylamino)phenoxy)-1H-benzimidazol-2-yl)carbamate]",,−

# Target: T2, GST-VEGFR2 (Homo sapiens, UniProt P35968)
# T2 construct: GST-VEGFR2, baculovirus expressed recombinant constructs of the intracellular domains of human TIE2 tagged by GST; made in house
# T2 sequence (P35968 786-1356 limits assumed): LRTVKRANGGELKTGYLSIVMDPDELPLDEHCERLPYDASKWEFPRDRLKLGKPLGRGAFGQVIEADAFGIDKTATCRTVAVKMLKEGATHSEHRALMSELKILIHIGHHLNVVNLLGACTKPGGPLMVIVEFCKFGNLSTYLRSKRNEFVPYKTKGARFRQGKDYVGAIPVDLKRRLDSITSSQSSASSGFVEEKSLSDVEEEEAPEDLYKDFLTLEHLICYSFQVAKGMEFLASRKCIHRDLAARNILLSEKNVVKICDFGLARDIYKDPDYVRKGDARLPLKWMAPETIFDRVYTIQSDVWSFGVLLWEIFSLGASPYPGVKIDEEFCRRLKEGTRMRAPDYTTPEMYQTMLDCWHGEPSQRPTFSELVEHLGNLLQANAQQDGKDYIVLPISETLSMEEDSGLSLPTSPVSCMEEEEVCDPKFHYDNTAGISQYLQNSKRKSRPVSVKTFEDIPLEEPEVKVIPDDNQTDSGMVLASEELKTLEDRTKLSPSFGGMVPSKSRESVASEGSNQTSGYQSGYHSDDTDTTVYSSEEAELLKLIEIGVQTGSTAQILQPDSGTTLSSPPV
# Experiment: VEGF-R2 enzyme assay (VEGF-E), LANCE method
# Assay type: biochemical
# Conditions: 75 μM ATP
# Description: VEGF-R2 Enzyme Assay (VEGF-E)
# The VEGF enzyme assay used the LANCE method (Wallac) and GST-VEGFR2, baculovirus expressed recombinant constructs of the intracellular domains of human […] tagged by GST. […] The reaction was stopped by the addition of EDTA (final concentration 50 mM). Streptavidin linked-APC (allophycocyanin, Molecular Probe) and Europium-labeled anti-phosphorylated tyrosine antibody (Wallac) were then added at the final concentration of 15 nM and 1 nM, respectively. The APC signal was measured using an ARVO multilabel counter (Wallac Berthold, Japan). The percent inhibition of activity was calculated relative to blank control wells. The concentration of test compound that inhibits 50% of activity (IC50) was interpolated using nonlinear regression (Levernberg-Marquardt) and the equation, y=Vmax (1−x/(K+x))+Y2, where “K” was equal to the IC50. The IC50 values were converted to pIC50 values, i.e., −log IC50 in Molar concentration.
row,Structure (SMILES),IC50
1,"O=C(Nc1ccc(Cl)cc1)Nc1nc2cc(Oc3ccc(NC(=O)Nc4cc(C(F)(F)F)ccc4F)cc3)ccc2[nH]1 [Example 134, 1-(5-(4-((2-Fluoro-5-(trifluoromethyl)phenyl)aminocarbonylamino)phenoxy)-1H-benzimidazol-2-yl)-3-(4-chlorophenyl)urea]",< 100 nM
2,"COC(=O)Nc1nc2cc(Oc3cccc(NC(=O)Nc4ccc(SC(F)(F)F)cc4)c3)ccc2[nH]1 [Example 117, Methyl N-(5-(3-((4-(trifluoromethylthio)phenyl)aminocarbonylamino)phenoxy)-1H-benzimidazol-2-yl)carbamate]",< 100 nM
3,"O=C(Nc1ccc(Oc2ccc3[nH]c(NC(=O)Nc4cc(C(F)(F)F)ccc4F)nc3c2)cc1)Nc1cc(C(F)(F)F)ccc1F [Example 133, 1-(5-(4-((2-Fluoro-5-(trifluoromethyl)phenyl)aminocarbonylamino)phenoxy)-1H-benzimidazol-2-yl)-3-(2-fluoro-5-(trifluoromethyl)phenyl)urea]",< 100 nM
4,"COC(=O)Nc1nc2cc(Oc3cccc(NC(=O)Nc4cccc(I)c4)c3)ccc2[nH]1 [Example 120, Methyl N-(5-(3-((3-iodophenyl)aminocarbonylamino)phenoxy)-1H-benzimidazol-2-yl)carbamate]",< 100 nM
5,"COC(=O)Nc1nc2cc(Oc3cccc(NC(=O)Nc4ccc(Oc5ccccc5)cc4)c3)ccc2[nH]1 [Example 125, Methyl N-(5-(3-((4-phenoxyphenyl)aminocarbonylamino)phenoxy)-1H-benzimidazol-2-yl)carbamate]",< 100 nM
6,"COC(=O)Nc1nc2cc(Oc3cccc(NC(=O)Nc4ccccc4C(F)(F)F)c3)ccc2[nH]1 [Example 118, Methyl N-(5-(3-((2-(trifluoromethyl)phenyl)aminocarbonylamino)phenoxy)-1H-benzimidazol-2-yl)carbamate]",100 to 1000 nM
7,COC(=O)Nc1nc2cc(Oc3cccc(NC(=O)Nc4cccc(SC(F)(F)F)c4)c3)ccc2[nH]1 [Example 58],< 100 nM
8,"COC(=O)Nc1nc2cc(Oc3cccc(NC(=O)Nc4ccc(Cl)c(C(F)(F)F)c4)c3)ccc2[nH]1 [Example 119, Methyl N-(5-(3-((4chloro-3-(trifluoromethyl)phenyl)aminocarbonylamino)phenoxy)-1H-benzimidazol-2-yl)carbamate]",< 100 nM
9,"COC(=O)Nc1nc2cc(Oc3ccc(NC(=O)Nc4cc(C(C)(C)C)on4)cc3)ccc2[nH]1 [Example 128, Methyl N-(5-(4-((5-tert-butylisoxazole-3-yl)aminocarbonylamino)phenoxy)-1H-benzimidazol-2-yl)carbamate]",< 100 nM
10,"COC(=O)Nc1nc2cc(Oc3cccc(NC(=O)Nc4ccc(Cl)cc4)c3)ccc2[nH]1 [Example 61, Methyl N-(5-(3-((4-chlorophenyl)aminocarbonylamino)phenoxy)-1H-benzimidazol-2-yl)carbamate]",< 100 nM
11,"COC(=O)Nc1nc2cc(Oc3cccc(NC(=O)Nc4ccccc4Oc4ccccc4)c3)ccc2[nH]1 [Example 124, Methyl N-(5-(3-((2-phenoxyphenyl)aminocarbonylamino)phenoxy)-1H-benzimidazol-2-yl)carbamate]",< 100 nM
12,"COC(=O)Nc1nc2cc(Oc3cccc(NC(=O)Nc4cc(Cl)ccc4Cl)c3)ccc2[nH]1 [Example 121, Methyl N-(5-(3-((2,5-dichlorophenyl)aminocarbonylamino)phenoxy)-1H-benzimidazol-2-yl)carbamate]",100 to 1000 nM
13,"COC(=O)Nc1nc2cc(Oc3cccc(NC(=O)Nc4cccc(Oc5ccccc5)c4)c3)ccc2[nH]1 [Example 60, Methyl N-(5-(3-((3-(phenoxy)phenyl)aminocarbonylamino)phenoxy)-1H-benzimidazol-2-yl)carbamate]",< 100 nM
14,"COC(=O)Nc1nc2cc(Oc3cccc(NC(=O)Nc4cc(C(C)(C)C)on4)c3)ccc2[nH]1 [Example 129, Methyl N-(5-(3-((5-tert-butylisoxazole-3-yl)aminocarbonylamino)phenoxy)-1H-benzimidazol-2-yl)carbamate]",< 100 nM
15,"COC(=O)Nc1nc2cc(Oc3ccc(NC(=O)Nc4ccc(OC)cc4)cc3)ccc2[nH]1 [Example 62, Methyl N-(5-(4-((4-methoxyphenyl)aminocarbonylamino)phenoxy)-1H-benzimidazol-2-yl)carbamate]",< 100 nM
16,"CCCCNC(=O)Nc1nc2ccc(Oc3ccc(NC(=O)Nc4cc(C(F)(F)F)ccc4F)cc3)cc2s1 [Example 137, 1-(6-(4-((2-Fluoro-5-(trifluoromethyl)phenyl)aminocarbonylamino)phenoxy)benzthiazol-2-yl)-3-(butyl)urea]",< 100 nM
17,"COC(=O)Nc1nc2cc(Oc3cccc(NC(=O)Nc4ccccc4OC(F)(F)F)c3)ccc2[nH]1 [Example 116, Methyl N-(5-(3-((2-(trifluoromethoxy)phenyl)aminocarbonylamino)phenoxy)-1H-benzimidazol-2-yl)carbamate]",< 100 nM
18,"COC(=O)Nc1nc2cc(Oc3ccc(NC(=O)Nc4cccc(Oc5ccccc5)c4)cc3)ccc2[nH]1 [Example 123, Methyl N-(5-(4-((3-phenoxyphenyl)aminocarbonylamino)phenoxy)-1H-benzimidazol-2-yl)carbamate]",100 to 1000 nM
19,"COC(=O)Nc1nc2cc(Oc3ccc(NC(=O)Nc4ccc5c(c4)CCC5)cc3)ccc2[nH]1 [Example 127, Methyl N-(5-(4-((5-indanyl)aminocarbonylamino)phenoxy)-1H-benzimidazol-2-yl)carbamate]",< 100 nM
20,"CCCCNC(=O)Nc1nc2ccc(Oc3ccc(NC(=O)Nc4ccc(Cl)c(C(F)(F)F)c4)cc3)cc2s1 [Example 136, 1-(6-(4-((4-Chloro-3-(trifluoromethyl)phenyl)aminocarbonylamino)phenoxy)benzthiazol-2-yl)-3-(butyl)urea]",< 100 nM
21,"COC(=O)Nc1nc2cc(Oc3ccc(NC(=O)Nc4ccc(F)cc4)cc3)ccc2[nH]1 [Example 63, Methyl N-(5-(4-((4-fluorophenyl)aminocarbonylamino)phenoxy)-1H-benzimidazol-2-yl)carbamate]",< 100 nM
22,"COCCOCC(=O)Nc1nc2cc(Oc3ccc(NC(=O)Nc4nnc(N5CCOCC5)[nH]4)cc3)ccc2[nH]1 [Example 163, N-(5-(4-((5-Morpholino-1,3,4-triazol-2-yl)aminocarbonylamino)phenoxy)-1H-benzimidazol-2-yl)(2-(methoxy)ethoxy)acetamide]",1000 to 10000 nM
23,"COC(=O)Nc1nc2cc(Oc3cccc(NC(=O)Nc4cccc(Br)c4)c3)ccc2[nH]1 [Example 59, Methyl N-(5-(3-((3-bromophenyl)aminocarbonylamino)phenoxy)-1H-benzimidazol-2-yl)carbamate]",< 100 nM
24,"COC(=O)Nc1nc2ccc(C(=O)c3ccc(NC(=O)Nc4cc(C(F)(F)F)ccc4F)cc3)cc2[nH]1 [Example 78, Methyl N-(5-(4-((2-fluoro-5-(trifluoromethyl)phenyl)aminocarbonylamino)phenylcarbonyl)-1H-benzimidazol-2-yl)carbamate]",< 100 nM
25,"COC(=O)Nc1nc2cc(Sc3ccc(NC(=O)Nc4cc(C(C)(C)C)on4)cc3)ccc2[nH]1 [Example 130, Methyl N-(5-(4-((5-tert-butylisoxazole-3-yl)aminocarbonylamino)phenylthio)-1H-benzimidazol-2-yl)carbamate]",< 100 nM
